What was measured:
Format in all cases: in vivo
[1] = tested on: pigweed (Amaranthus retroflexus); experiment: Test A preemergence pigweed; conditions: 0 to 100 scale, 0 no effect, 100 complete control
Method in brief: (§1)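 Seeds sown in loam–sand blend received a directed preemergence soil spray; postemergence plants (2–10 cm, one- to two-leaf stage) were sprayed in the same soil. Chemicals were formulated in non-phytotoxic solvent with surfactant. After ~10 d in greenhouse, injury was rated visually against untreated controls, 0 (no effect) to 100 (complete control).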

[2] = tested on: rice (Oryza sativa); experiment: Test B flooded paddy test rice; conditions: Table B, Flood, 250 g ai/ha, scale 0 to 100
Method in brief: (§2)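 Plants at 2-leaf stage in pots flooded 3 cm above soil; compounds applied directly into paddy water, depth kept throughout.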

[3] = tested on: barnyardgrass (Echinochloa crus-galli); experiment: Test A postemergence barnyardgrass; conditions: 0 to 100 scale, 0 is no effect, 100 is complete control
Method in brief: as §1

[4] = tested on: corn (Zea mays); experiment: Test A postemergence corn; conditions: 0 to 100 scale, 0 is no effect, 100 is complete control
Method in brief: as §1

[5] = tested on: blackgrass (Alopecurus myosuroides); experiment: Test A postemergence blackgrass; conditions: 0 to 100 scale, 0 is no effect, 100 is complete control
Method in brief: as §1

[6] = tested on: foxtail, giant (giant foxtail, Setaria faberii); experiment: Test A preemergence foxtail, giant; conditions: 0 to 100 scale, 0 no effect, 100 complete control
Method in brief: as §1

[7] = tested on: barnyardgrass (Echinochloa crus-galli); experiment: Test B flooded paddy test barnyardgrass; conditions: Table B, Flood, 250 g ai/ha, scale 0 to 100
Method in brief: as §2

[8] = tested on: ragweed (common ragweed, Ambrosia elatior); experiment: Test A preemergence ragweed; conditions: 0 to 100 scale, 0 no effect, 100 complete control
Method in brief: as §1

[9] = tested on: foxtail, giant (giant foxtail, Setaria faberii); experiment: Test A postemergence foxtail, giant; conditions: 0 to 100 scale, 0 is no effect, 100 is complete control
Method in brief: as §1

[10] = tested on: barnyardgrass (Echinochloa crus-galli); experiment: Test A preemergence barnyardgrass; conditions: 0 to 100 scale, 0 no effect, 100 complete control
Method in brief: as §1

[11] = tested on: sedge, umbrella (small-flower umbrella sedge, Cyperus difformis); experiment: Test B flooded paddy test sedge, umbrella; conditions: Table B, Flood, 250 g ai/ha, scale 0 to 100
Method in brief: as §2

[12] = tested on: galium (catchweed bedstraw, Galium aparine); experiment: Test A postemergence galium; conditions: 0 to 100 scale, 0 is no effect, 100 is complete control
Method in brief: as §1

[13] = tested on: ryegrass, Italian (Italian ryegrass, Lolium multiflorum); experiment: Test A preemergence ryegrass, Italian; conditions: 0 to 100 scale, 0 no effect, 100 complete control
Method in brief: as §1

[14] = tested on: pigweed (Amaranthus retroflexus); experiment: Test A postemergence pigweed; conditions: 0 to 100 scale, 0 is no effect, 100 is complete control
Method in brief: as §1

[15] = tested on: wheat (Triticum aestivum); experiment: Test A postemergence wheat; conditions: 0 to 100 scale, 0 is no effect, 100 is complete control
Method in brief: as §1

[16] = tested on: kochia (Kochia scoparia); experiment: Test A postemergence kochia; conditions: 0 to 100 scale, 0 is no effect, 100 is complete control
Method in brief: as §1

[17] = tested on: kochia (Kochia scoparia); experiment: Test A preemergence kochia; conditions: 0 to 100 scale, 0 no effect, 100 complete control
Method in brief: as §1

[18] = tested on: ducksalad (Heteranthera limosa); experiment: Test B flooded paddy test ducksalad; conditions: Table B, Flood, 250 g ai/ha, scale 0 to 100
Method in brief: as §2

[19] = tested on: ragweed (common ragweed, Ambrosia elatior); experiment: Test A postemergence ragweed; conditions: 0 to 100 scale, 0 is no effect, 100 is complete control
Method in brief: as §1

[20] = tested on: ryegrass, Italian (Italian ryegrass, Lolium multiflorum); experiment: Test A postemergence ryegrass, Italian; conditions: 0 to 100 scale, 0 is no effect, 100 is complete control
Method in brief: as §1

| SMILES | Pigweed plant response rating ([1]; 125 g ai/ha) | Pigweed plant response rating ([1]; 500 g ai/ha) | Plant response rating [2] | Plant response rating, Barnyardgrass ([3]; 125 g ai/ha) | Plant response rating, Barnyardgrass ([3]; 500 g ai/ha) | Plant response rating, Corn ([4]; 125 g ai/ha) | Plant response rating, Corn ([4]; 500 g ai/ha) | Plant response rating, Blackgrass ([5]; 125 g ai/ha) | Plant response rating, Blackgrass ([5]; 500 g ai/ha) | Foxtail, Giant plant response rating ([6]; 125 g ai/ha) | Foxtail, Giant plant response rating ([6]; 500 g ai/ha) | Plant response rating [7] | Ragweed plant response rating ([8]; 125 g ai/ha) | Ragweed plant response rating ([8]; 500 g ai/ha) | Plant response rating, Foxtail, Giant ([9]; 125 g ai/ha) | Plant response rating, Foxtail, Giant ([9]; 500 g ai/ha) | Barnyardgrass plant response rating ([10]; 125 g ai/ha) | Barnyardgrass plant response rating ([10]; 500 g ai/ha) | Plant response rating [11] | Plant response rating, Galium ([12]; 125 g ai/ha) | also measured |
| --- | --- | --- | --- | --- | --- | --- | --- | --- | --- | --- | --- | --- | --- | --- | --- | --- | --- | --- | --- | --- | --- |
| O=C1NCC[C@@H](c2cccc(C(F)(F)F)c2)[C@@H]1C(=O)Nc1cccc(F)c1F [Compound 20] | 0 | 0 | 0 | 40 | 80 | 0 | 20 | 0 | 20 | 60 | 90 | 0 | 0 | 0 | 40 | 80 | 50 | 90 | 0 | 0 | Plant response rating, Galium ([12]; 500 g ai/ha): 0; Ryegrass, Italian plant response rating ([13]; 125 g ai/ha): 0; Ryegrass, Italian plant response rating ([13]; 500 g ai/ha): 0; Plant response rating, Pigweed ([14]; 125 g ai/ha): 0; Plant response rating, Pigweed ([14]; 500 g ai/ha): 0; Plant response rating, Wheat ([15]; 125 g ai/ha): 0; Plant response rating, Wheat ([15]; 500 g ai/ha): 0; Plant response rating, Kochia ([16]; 125 g ai/ha): 0; Plant response rating, Kochia ([16]; 500 g ai/ha): 0; Kochia plant response rating ([17]; 125 g ai/ha): 0; Kochia plant response rating ([17]; 500 g ai/ha): 0; Plant response rating [18]: 0; Plant response rating, Ragweed ([19]; 125 g ai/ha): 0; Plant response rating, Ragweed ([19]; 500 g ai/ha): 0; Plant response rating, Ryegrass, Italian ([20]; 125 g ai/ha): 0; Plant response rating, Ryegrass, Italian ([20]; 500 g ai/ha): 20 |
| O=C1NCC[C@@H](c2ccc(C(F)(F)F)cc2)[C@@H]1C(=O)Nc1cccc(F)c1F [Compound 23] | 0 | 0 | 0 | 20 | 70 | 0 | 20 | 0 | 10 | 30 | 80 | 0 | 0 | 60 | 20 | 60 | 30 | 70 | 0 | 0 | Plant response rating, Galium ([12]; 500 g ai/ha): 20; Ryegrass, Italian plant response rating ([13]; 125 g ai/ha): 0; Ryegrass, Italian plant response rating ([13]; 500 g ai/ha): 20; Plant response rating, Pigweed ([14]; 125 g ai/ha): 0; Plant response rating, Pigweed ([14]; 500 g ai/ha): 0; Plant response rating, Wheat ([15]; 125 g ai/ha): 0; Plant response rating, Wheat ([15]; 500 g ai/ha): 20; Plant response rating, Kochia ([16]; 125 g ai/ha): 20; Plant response rating, Kochia ([16]; 500 g ai/ha): 50; Kochia plant response rating ([17]; 125 g ai/ha): 0; Kochia plant response rating ([17]; 500 g ai/ha): 40; Plant response rating [18]: 0; Plant response rating, Ragweed ([19]; 125 g ai/ha): 0; Plant response rating, Ragweed ([19]; 500 g ai/ha): 0; Plant response rating, Ryegrass, Italian ([20]; 125 g ai/ha): 0; Plant response rating, Ryegrass, Italian ([20]; 500 g ai/ha): 20 |
| O=C1NCC[C@@H](c2cccc(C(F)(F)F)c2)[C@@H]1C(=O)Nc1cccc(Cl)c1F [Compound 24] | 0 | 0 | 0 | 50 | 80 | 20 | 30 | 0 | 30 | 70 | 80 | 0 | 0 | 0 | 50 | 80 | 50 | 80 | 0 | 0 | Plant response rating, Galium ([12]; 500 g ai/ha): 0; Ryegrass, Italian plant response rating ([13]; 125 g ai/ha): 0; Ryegrass, Italian plant response rating ([13]; 500 g ai/ha): 0; Plant response rating, Pigweed ([14]; 125 g ai/ha): 0; Plant response rating, Pigweed ([14]; 500 g ai/ha): 0; Plant response rating, Wheat ([15]; 125 g ai/ha): 20; Plant response rating, Wheat ([15]; 500 g ai/ha): 30; Plant response rating, Kochia ([16]; 125 g ai/ha): 0; Plant response rating, Kochia ([16]; 500 g ai/ha): 0; Kochia plant response rating ([17]; 125 g ai/ha): 0; Kochia plant response rating ([17]; 500 g ai/ha): 0; Plant response rating [18]: 0; Plant response rating, Ragweed ([19]; 125 g ai/ha): 0; Plant response rating, Ragweed ([19]; 500 g ai/ha): 0; Plant response rating, Ryegrass, Italian ([20]; 125 g ai/ha): 0; Plant response rating, Ryegrass, Italian ([20]; 500 g ai/ha): 20 |
| O=C1NCC[C@@H](c2cccc(C(F)(F)F)c2)[C@@H]1C(=O)Nc1ccc(F)c(F)c1F [Compound 29] | 0 | 0 | 0 | 0 | 30 | 0 | 0 | 0 | 0 | 0 | 20 | 0 | 0 | 0 | 0 | 0 | 0 | 20 | 0 | 0 | Plant response rating, Galium ([12]; 500 g ai/ha): 0; Ryegrass, Italian plant response rating ([13]; 125 g ai/ha): 0; Ryegrass, Italian plant response rating ([13]; 500 g ai/ha): 0; Plant response rating, Pigweed ([14]; 125 g ai/ha): 0; Plant response rating, Pigweed ([14]; 500 g ai/ha): 0; Plant response rating, Wheat ([15]; 125 g ai/ha): 0; Plant response rating, Wheat ([15]; 500 g ai/ha): 0; Plant response rating, Kochia ([16]; 125 g ai/ha): 0; Plant response rating, Kochia ([16]; 500 g ai/ha): 0; Kochia plant response rating ([17]; 125 g ai/ha): 0; Kochia plant response rating ([17]; 500 g ai/ha): 0; Plant response rating [18]: 0; Plant response rating, Ragweed ([19]; 125 g ai/ha): 0; Plant response rating, Ragweed ([19]; 500 g ai/ha): 0; Plant response rating, Ryegrass, Italian ([20]; 125 g ai/ha): 0; Plant response rating, Ryegrass, Italian ([20]; 500 g ai/ha): 0 |
| O=C1NCC[C@@H](c2cccc(Cl)c2)[C@@H]1C(=O)Nc1cccc(F)c1F [Compound 43] | 0 | 0 | 0 | 0 | 0 | 0 | 0 | 0 | 0 | 0 | 0 | 0 | 0 | 0 | 0 | 0 | 0 | 0 | 0 | 0 | Plant response rating, Galium ([12]; 500 g ai/ha): 0; Ryegrass, Italian plant response rating ([13]; 125 g ai/ha): 0; Ryegrass, Italian plant response rating ([13]; 500 g ai/ha): 0; Plant response rating, Pigweed ([14]; 125 g ai/ha): 0; Plant response rating, Pigweed ([14]; 500 g ai/ha): 0; Plant response rating, Wheat ([15]; 125 g ai/ha): 0; Plant response rating, Wheat ([15]; 500 g ai/ha): 0; Plant response rating, Kochia ([16]; 125 g ai/ha): 0; Plant response rating, Kochia ([16]; 500 g ai/ha): 0; Kochia plant response rating ([17]; 125 g ai/ha): 0; Kochia plant response rating ([17]; 500 g ai/ha): 0; Plant response rating [18]: 0; Plant response rating, Ragweed ([19]; 125 g ai/ha): 0; Plant response rating, Ragweed ([19]; 500 g ai/ha): 0; Plant response rating, Ryegrass, Italian ([20]; 125 g ai/ha): 0; Plant response rating, Ryegrass, Italian ([20]; 500 g ai/ha): 0 |
